From patent publication US20220340665A1, “INHIBITOR AGAINST EXPRESSION OF IMMUNE CHECKPOINT MOLECULE” (RENASCIENCE INC., priority 2019, published 2022)

Biological target: human PAI-1 (Homo sapiens, UniProt P05121)
Assay: PAI-1 inhibitory activity, t-PA with Spectrozyme t-PA chromogenic substrate (Reference Experimental Example 2)
Format: biochemical
Set-up: purchased Molecular Innovations, Inc. (USA)
Procedure: Subsequently, human-derived tissue plasminogen activator (t-PA) (manufactured by American Diagnostica, Inc. (USA); the same applies hereinafter) adjusted to 0.05 pmol/μL was added thereto, and the mixture was further incubated at 37° C. for 60 minutes. Then, 0.25 mM of Spectrozyme t-PA synthetic substrate (manufactured by American Diagnostica, Inc. (USA); the same applies hereinafter), which is a chromogenic substrate, was added. […]
Free p-nitroaniline removed from the chromogenic substrate (Spectrozyme t-PA) by t-PA action was measured using a spectrophotometer at an absorbance of 405 nm at 20-minute intervals, for 120 minutes.

[1] = compound 10 μm (head), system without compound after 120 minutes = 100%
[2] = compound 25 μm (head), system without compound after 120 minutes = 100%
[3] = Tables 5 to 7, first value column, head prints no concentration
[4] = Tables 5 to 7, second value column, head prints no concentration

human PAI-1, sequence (P05121 24-402): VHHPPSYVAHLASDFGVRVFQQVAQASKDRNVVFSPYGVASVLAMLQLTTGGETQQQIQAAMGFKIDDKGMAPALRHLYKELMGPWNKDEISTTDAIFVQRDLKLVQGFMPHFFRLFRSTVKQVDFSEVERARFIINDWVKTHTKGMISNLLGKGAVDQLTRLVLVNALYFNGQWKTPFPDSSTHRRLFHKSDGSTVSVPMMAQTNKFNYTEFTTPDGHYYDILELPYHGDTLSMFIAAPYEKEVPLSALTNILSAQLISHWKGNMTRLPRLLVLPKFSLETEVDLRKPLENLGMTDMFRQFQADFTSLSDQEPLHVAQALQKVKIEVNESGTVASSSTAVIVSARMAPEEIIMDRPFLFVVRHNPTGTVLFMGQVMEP

Molecule	PAI-1 activity % [1] [%]	PAI-1 activity % [2] [%]	PAI-1 activity % [3] [%]	PAI-1 activity % [4] [%]
5-chloro-2-(((3-(cyclohex-1-en-1yl)phenyl)acetyl)amino)benzoic acid [Example 25]	0.0	85.8		
O=C(Nc1ccc(Cl)cc1C(=O)[O-])c1ccc(-c2cccc3cccnc23)cc1.[Na+] [Example 67, 5-chloro-2-(((4-(quinolin-8-yl)phenyl)carbonyl)amino)sodium benzoate]	0.6	90.4		
O=C(/C=C/c1cccc(-c2cccc3cccnc23)c1)Nc1ccc(Cl)cc1C(=O)[O-].[Na+] [Example 101, 5-chloro-2-(((2E)-3-(3-(quinolin-8-yl)phenyl)prop-2-enoyl)amino)sodium benzoate]			0.2	24.7
O=C(Nc1ccc(Cl)cc1C(=O)[O-])c1cccc(-c2ccncc2)c1.[Na+] [Example 8, 5-chloro-2-(((3-(pyridin-4-yl)phenyl)carbonyl)amino)sodium benzoate]	28.5	100.3		
O=C(Nc1ccc(Cl)cc1C(=O)[O-])c1cccc(-c2cncc3ccccc23)c1.[Na+] [Example 64, 5-chloro-2-(((3-(isoquinolin-4-yl)phenyl)carbonyl)amino)sodium benzoate]	0.7	74.3		
O=C(O)c1cc(Cl)ccc1NC(=O)C1CCCN(C(=O)c2cccc(-c3ccccc3)c2)C1 (stereo not shown) [Example 31, 2-(((1-(biphenyl-3-ylcarbonyl)pipendin-3-yl)carbonyl)amino)-5-chlorobenzoic acid]	20.2	88.0		
Cn1c(C(=O)Nc2ccc(Cl)cc2C(=O)O)cc2cc(Br)ccc21 [Example 23]	1.8	97.3		
O=C([O-])c1cc(Cl)ccc1NC(=O)c1cc(-c2ccccc2)nc2ccccc12.[Na+] [Example 107, 5-chloro-2-(((2-phenylquinolin-4-yl)carbonyl)amino)sodium benzoate]			6.7	100.0
O=C(Nc1ccc(C2=CCCCC2)cc1C(=O)O)c1ccc(C2CCCCC2)cc1 [Example 81, 5-(cyclohex-1-en-1-yl)-2-(((4-cylcohexylphenyl)carbonyl)amino)benzoic acid]			0.0	1.0
O=C(COC(c1ccccc1)c1ccccc1)Nc1ccc(Cl)cc1C(=O)O [Example 76, 5-chloro-2-(((diphenylmethoxy)acetyl)amino)benzoic acid]			30.5	
COc1ccccc1-c1cccc(OCC(=O)Nc2ccc(Cl)cc2C(=O)O)c1 [Example 61, 5-chloro-2-((((2'-methoxybiphenyl-3-yl)oxy)acetyl)amino)benzoic acid]	36.9			
O=C(Nc1ccc(Cl)cc1C(=O)O)c1ccc(C2=CCOCC2)cc1 [Example 32, 5-chloro-2-(((4'-(3,6-dihydro-2H-pyran-4-yl)phenyl)carbonyl)amino)benzoic acid]	1.7	94.4		
O=C(Nc1ccc(Cl)cc1C(=O)O)c1ccc(C(=O)C23CC4CC(CC(C4)C2)C3)cc1 [Example 56]	0.7	75.8		
5-chloro-2-(((4-(methylcyclohexyl)phenyl)carbonyl)amino)benzoic acid [Example 98]			0.1	41.5
O=C(COc1ccc(C23CC4CC(CC(C4)C2)C3)cc1)Nc1ccc(Cl)cc1C(=O)O [Example 21]	0.3	10.0		
O=C(/C=C(/Cl)C1CCCCC1)Nc1ccc(Cl)cc1C(=O)O [Example 91, 5-chloro-2-(((2E)-3-chloro-3-cyclohexlprop-2-encyl)amino)benzoic acid]			16.7	96.9
2-((biphenyl-4-ylcarbonoyl)amino)-5-chlorobenzoic acid [Example 71]			2.1	39.6
O=C(CN1CCN(C(c2ccccc2)c2ccccc2)CC1)Nc1ccc(Cl)cc1C(=O)O [Example 77, 5-chloro-2-(((4-(diphenylmethyl)piperazin-1-yl)acetyl)amino)benzoic acid]				69.6
O=C(O)c1cc(Cl)ccc1NC(=O)c1cccc2c1Cc1ccccc1-2 [Example 38, 5-chloro-2-((9H-fluoren-1-ylcarbonyl)amino)benzoic acid]		94.6		
Cl.O=C(O)c1cc(Cl)ccc1NC(=O)N1CCN(C(c2ccccc2)c2ccccc2)CC1 [Example 75, 5-chloro-2-(((4-(diphenylmethyl)piperacin-1-yl)carbonyl)amino)benzoic acid hydrochloride]			4.7	86.4
O=C(COc1cccc(C23CC4CC(CC(C4)C2)C3)c1)Nc1ccc(Cl)cc1C(=O)O [Example 30]	1.3	19.3		
O=C(O)c1cc(Cl)ccc1NC(=O)C1(c2cccc(-c3ccoc3)c2)CC1 [Example 35, 5-chloro-2-(((1-(3-(furan-3-yl)phenyl)cyclopropyl)carbonyl)amino)benzoic acid]		96.8		
CC(C)(C)c1cccc(OCC(=O)Nc2ccc(Cl)cc2C(=O)O)c1 [Example 18, 2-(((3-tert-butylphenoxy)acetyl)amino)-5-chlorobenzoic acid]	16.1	81.4		
O=C(Nc1ccc(Cl)cc1C(=O)[O-])c1cccc(-c2cccc3ncccc23)c1.[Na+] [Example 65, 5-chloro-2-(((3-(quinolin-50yl)phenyl)carbonyl)amino)sodium benzoate]	0.4	71.7		
O=C(Nc1ccc(Cl)cc1C(=O)O)c1cccc(-c2cccc3ccccc23)c1 [Example 58, 5-chloro-2-(((3-(naphthalen-1-yl)phenyl)carbonyl)amino)benzoic acid]	0.0	0.0		
CC(C)(C)c1cccc(OCC(=O)Nc2ccc(Cl)cc2C(=O)O)c1 [Example 16, 2-(((3-tert-butylphenoxy)acetyl)amino)-5-chlorobenzioc acid]	21.9	77.4		
O=C(Nc1ccc(Cl)cc1C(=O)[O-])c1cccc(-c2cccc3cnccc23)c1.[Na+] [Example 66]	0.1	22.6		
O=C(Nc1ccc(Cl)cc1C(=O)[O-])c1cccc(-c2cnc3ccccc3c2)c1.[Na+] [Example 63, 5-chloro-2-(((3-(quinolin-3-yl)phenyl)carbonyl)amino)sodium benzoate]	0.3	21.3		
O=C(/C=C/c1cccc(-c2cccnc2)c1)Nc1ccc(Cl)cc1C(=O)[O-].[Na+] [Example 103, 5-chloro-2-(((2E)-3-[3-(pyridin-3-yl)phenyl]prop-2-enoyl)amino)sodium benzoate]			34.2	92.3
O=C(COc1ccccc1-c1ccccc1)Nc1ccc(-c2ccoc2)cc1C(=O)O [Example 46, 2-(((biphenyl-2-yloxy)acetyl)amino)-5-(furan-3-yl)benzoic acid]	0.4	69.9		
